Here are results for 18 compounds from patent publication US20140135310A1, “SULPHONAMIDE DERIVATIVES OF ALICYCLIC AMINES FOR THE TREATMENT OF CENTRAL NERVOUS SYSTEM DISEASES” (Adamed Sp. z o.o., priority 2011, published 2014).

Holding throughout (format): cell-based
In assay [1] the target is D2 dopaminergic receptors (Homo sapiens, UniProt P14416). Briefly: Cellular functional assay, D2 dopaminergic receptors. Particulars: D2S (h), HEK-293 cells; for D2 ag [%]: agonism, percent of control specific agonist response (3 μM dopamine for control); for D2 antag [%]: antagonism, stimulus dopamine (30 nM). The procedure: (§1) The results are expressed as a percent of control specific agonist response ((measured specific response/control specific agonist response)×100) obtained in the presence of the test compounds.
Sequence of D2 dopaminergic receptors (P14416 whole entry): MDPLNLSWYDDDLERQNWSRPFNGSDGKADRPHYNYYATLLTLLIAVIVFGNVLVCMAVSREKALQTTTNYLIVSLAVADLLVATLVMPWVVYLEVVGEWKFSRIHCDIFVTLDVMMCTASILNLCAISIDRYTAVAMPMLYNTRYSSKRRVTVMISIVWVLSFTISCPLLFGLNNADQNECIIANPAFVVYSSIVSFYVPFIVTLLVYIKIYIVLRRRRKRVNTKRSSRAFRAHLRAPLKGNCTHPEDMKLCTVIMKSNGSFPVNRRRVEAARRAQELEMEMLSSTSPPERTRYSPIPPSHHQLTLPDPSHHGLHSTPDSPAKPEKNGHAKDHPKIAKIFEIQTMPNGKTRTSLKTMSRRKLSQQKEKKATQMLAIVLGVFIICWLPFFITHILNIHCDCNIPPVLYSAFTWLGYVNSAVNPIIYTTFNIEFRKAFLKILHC
(§2) The EC50 values (concentration producing a half-maximal specific response) and IC50 values (concentration causing a half-maximal inhibition of the control specific agonist response) were determined by non-linear regression analysis of the concentration-response curves generated with mean replicate values using Hill equation curve fitting (Y=D+[(A−D)/(1+(C/C50)nH)], where Y=specific response, D=minimum specific response, A=maximum specific response, C=compound concentration, and C50=EC50 or IC50, and nH=slope factor). This analysis was performed using a software developed at Cerep (Hill software) and validated by comparison with data generated by the commercial software SigmaPlot® 4.0 for Windows® (© 1997 by SPSS Inc.).
(§3) For the antagonists, the apparent dissociation constants (Kb) were calculated using the modified Cheng Prusoff equation (Kb=IC50/(1+(A/EC50A)), where A=concentration of reference agonist in the assay, and EC50A=EC50 value of the reference agonist).

For assay [2], the target named is T1, D4 dopaminergic receptors (Homo sapiens, UniProt P21917).
T1 sequence (P21917 1-419): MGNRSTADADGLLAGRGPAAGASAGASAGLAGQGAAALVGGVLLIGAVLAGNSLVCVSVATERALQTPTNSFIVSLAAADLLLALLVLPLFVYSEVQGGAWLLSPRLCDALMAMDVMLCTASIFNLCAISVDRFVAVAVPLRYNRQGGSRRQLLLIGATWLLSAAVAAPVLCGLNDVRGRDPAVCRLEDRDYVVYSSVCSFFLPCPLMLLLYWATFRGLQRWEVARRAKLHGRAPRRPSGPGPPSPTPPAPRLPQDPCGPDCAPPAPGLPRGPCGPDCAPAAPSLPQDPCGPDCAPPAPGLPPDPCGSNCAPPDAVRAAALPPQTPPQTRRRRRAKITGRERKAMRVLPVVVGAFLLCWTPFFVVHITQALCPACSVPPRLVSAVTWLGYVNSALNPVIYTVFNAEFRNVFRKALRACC
Briefly: Cellular functional assay, D4 dopaminergic receptors. The conditions noted are these: D4.4 (h), CHO cells; for D4 ag [%]: agonism, percent of control specific agonist response (300 nM dopamine for control); for D4 antag [%]: antagonism, stimulus dopamine (100 nM). The procedure: as §1, §2, §3

Assay [3] has as its target T2, 5-HT1A serotoninergic receptors (Homo sapiens, UniProt P08908).
T2 sequence (P08908 1-422): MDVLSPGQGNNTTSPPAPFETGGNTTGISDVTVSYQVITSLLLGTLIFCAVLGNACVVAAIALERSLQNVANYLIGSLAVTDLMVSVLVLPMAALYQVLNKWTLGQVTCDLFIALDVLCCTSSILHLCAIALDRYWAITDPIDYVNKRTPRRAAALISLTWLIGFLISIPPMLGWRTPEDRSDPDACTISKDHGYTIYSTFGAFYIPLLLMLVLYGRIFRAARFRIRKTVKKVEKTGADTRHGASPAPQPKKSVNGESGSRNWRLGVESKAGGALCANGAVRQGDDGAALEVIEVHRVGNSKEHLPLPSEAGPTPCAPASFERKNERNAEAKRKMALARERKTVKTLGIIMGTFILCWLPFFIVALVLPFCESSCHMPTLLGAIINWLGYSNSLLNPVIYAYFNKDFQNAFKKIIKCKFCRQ
Briefly: Cellular functional assay, 5-HT1A serotoninergic receptors. Particulars: for 5-HT1A ag [%]: agonist mode, percent of control specific agonist response; for 5-HT1A antag [%]: antagonist mode. The procedure:
as §1, §2, §3

Assay [4] deals with D3 dopaminergic receptors (Homo sapiens, UniProt P35462). Briefly: Cellular functional assay, D3 dopaminergic receptors. The conditions noted are these: D3 (h), CHO cells; for D3 ag [%]: agonism, percent of control specific agonist response (0.3 μM dopamine for control); for D3 antag [%]: antagonism, stimulus dopamine (10 nM). As for the experimental part: as §1, §2, §3
Sequence of D3 dopaminergic receptors (P35462 whole entry): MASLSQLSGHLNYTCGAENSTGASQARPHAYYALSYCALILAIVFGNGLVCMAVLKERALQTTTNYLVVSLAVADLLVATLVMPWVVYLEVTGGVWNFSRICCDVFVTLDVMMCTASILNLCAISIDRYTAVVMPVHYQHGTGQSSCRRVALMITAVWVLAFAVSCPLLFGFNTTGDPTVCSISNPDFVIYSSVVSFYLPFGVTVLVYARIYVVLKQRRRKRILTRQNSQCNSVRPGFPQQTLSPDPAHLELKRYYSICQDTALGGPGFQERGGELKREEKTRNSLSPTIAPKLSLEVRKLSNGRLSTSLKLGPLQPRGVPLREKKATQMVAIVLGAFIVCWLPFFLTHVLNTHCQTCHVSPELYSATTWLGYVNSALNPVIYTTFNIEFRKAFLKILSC

In the case of `O=S(=O)(NC1CCN(CCCc2noc3cc(F)ccc23)C1)c1cccc2ccccc12` (stereo not shown) [Compound 20, N-[1-[3-(6-Fluoro-1,2-benzoxazol-3-yl)propyl]pyrrolidin-3-yl]naphthalene-1-sulphonamide], in assay [1], the “D2 ag [%]” value was determined as 4% and the “D2 antag [%]” value was 32%. In assay [2], the “D4 ag [%]” value amounted to 17% and the “D4 antag [%]” value is listed as 79%.
`O=S(=O)(NC1CCN(CCOc2nsc3ccccc23)C1)c1ccc2ccccc2c1` (stereo not shown) [Compound 39, N-[1-[2-(1,2-Benzothiazol-3-yloxy)ethyl]pyrrolidin-3-yl]naphthalene-2-sulphonamide]: in assay [3], the “5-HT1A ag [%]” value is recorded as 34%. Further, in assay [4], the “D3 ag [%]” value stood at 66% and the “D3 antag [%]” value stood at 16%.
Regarding `O=S(=O)(NC1CN(CCOc2cccc3[nH]ccc23)C1)c1cccc2ccccc12` [Compound 49, N-[1-[2-(1H-Indol-4-yloxy)ethyl]azetidin-3-yl]naphthalene-1-sulphonamide], in assay [1], the “D2 ag [%]” value is 57% and the “D2 antag [%]” value is listed as 97%. In assay [3], the “5-HT1A ag [%]” value amounted to 39%. In assay [4], the “D3 ag [%]” value was 75% and the “D3 antag [%]” value amounted to 12%.
In the case of `O=S(=O)(NC1CN(CCOc2cccc3[nH]ccc23)C1)c1ccc2ccccc2c1` [Compound 50, N-[1-[2-(1H-Indol-4-yloxy)ethyl]azetidin-3-yl]naphthalene-2-sulphonamide], in assay [1], the “D2 ag [%]” value came to 56% and the “D2 antag [%]” value came out at 92%. Further, the “5-HT1A ag [%]” value in assay [3] came to 48%. Further, in assay [2], the “D4 ag [%]” value was determined as 62% and the “D4 antag [%]” value was determined as 32%. In assay [4], the “D3 ag [%]” value is on record as 85% and the “D3 antag [%]” value came to 0%.
Consider `O=S(=O)(NC1CCN(CCOc2cccc3[nH]ccc23)CC1)c1ccccc1` [Compound 55, N-[1-[2-(1H-Indol-4-yloxy)ethyl]-4-piperidine]benzenesulphonamide], for which, in assay [3], the “5-HT1A ag [%]” value was 72% and the “5-HT1A antag [%]” value amounted to 18%. Moreover, in assay [4], the “D3 ag [%]” value came to 82% and the “D3 antag [%]” value is recorded as −33%.
Consider `Cc1cccc(S(=O)(=O)NC2CCN(CCCc3c[nH]c4ccc(F)cc34)C2)c1` (stereo not shown) [Compound 78, N-[1-[3-(5-Fluoro-1H-indol-3-yl)propyl]pyrrolidin-3-yl]-3-methyl-benzenesulphonamide], for which the “5-HT1A ag [%]” value in assay [3] is reported as 54%. For the same compound, in assay [4], the “D3 ag [%]” value was determined as 89% and the “D3 antag [%]” value is reported as −10%.
`O=S(=O)(NC1CCN(CCCc2c[nH]c3ccc(F)cc23)C1)c1ccc2ccccc2c1` (stereo not shown) [Compound 80, N-[1-[3-(5-Fluoro-1H-indol-3-yl)propyl]pyrrolidin-3-yl]naphthalene-2-sulphonamide]: in assay [1], the “D2 ag [%]” value was determined as 33% and the “D2 antag [%]” value is 78%. Further, the “5-HT1A ag [%]” value in assay [3] came to 42%. For the same compound, in assay [2], the “D4 ag [%]” value was found to be 6% and the “D4 antag [%]” value came to 80%. Further, in assay [4], the “D3 ag [%]” value is reported as 91% and the “D3 antag [%]” value is recorded as −5%.
As to `O=S(=O)(NC1CN(CCOc2cccc3c2OCCO3)C1)c1ccc(Cl)cc1` [Compound 92, 4-Chloro-N-[1-[2-(2,3-dihydro-1,4-benzodioxan-8-yloxy)ethyl]azetidin-3-yl]benzene-sulphonamide], in assay [3], the “5-HT1A ag [%]” value is given as 47% and the “5-HT1A antag [%]” value stood at 89%.
Regarding `Cc1cccc(S(=O)(=O)NC2CN(CCOc3cccc4c3OCCO4)C2)c1` [Compound 93, N-[1-[2-(2,3-Dihydro-1,4-benzodioxan-8-yloxy)ethyl]azetidin-3-yl]-3-methyl-benzenesulphonamide], in assay [3], the “5-HT1A ag [%]” value was determined as 37% and the “5-HT1A antag [%]” value is recorded as 76%.
On to `Cc1cc(S(=O)(=O)NC2CCN(CCCc3noc4cc(F)ccc34)C2)c(C)s1` (stereo not shown) [Compound 221, N-[1-[3-(6-Fluoro-1,2-benzoxazol-3-yl)propyl]pyrrolidin-3-yl]-2,5-dimethyl-thiophene-3-sulphonamide], for which, in assay [1], the “D2 ag [%]” value is recorded as 14% and the “D2 antag [%]” value was determined as 97%. In assay [2], the “D4 ag [%]” value is recorded as 10% and the “D4 antag [%]” value was found to be 73%. Also, in assay [4], the “D3 ag [%]” value is given as −3% and the “D3 antag [%]” value is reported as 100%.
For the compound `Cc1cc(S(=O)(=O)N[C@@H]2CCN(CCCc3noc4cc(F)ccc34)C2)c(C)s1` [Compound 222, N-[(3R)-1-[3-(6-Fluoro-1,2-benzoxazol-3-yl)propyl]pyrrolidin-3-yl]-2,5-dimethyl-thiophene-3-sulphonamide], in assay [1], the “D2 ag [%]” value is listed as 6% and the “D2 antag [%]” value is 65%. In assay [2], the “D4 ag [%]” value was found to be 6% and the “D4 antag [%]” value is given as 58%.
`Cc1cc(S(=O)(=O)N[C@H]2CCN(CCCc3noc4cc(F)ccc34)C2)c(C)s1` [Compound 223, N-[(3S)-1-[3-(6-Fluoro-1,2-benzoxazol-3-yl)propyl]pyrrolidin-3-yl]-2,5-dimethyl-thiophene-3-sulphonamide]: in assay [2], the “D4 ag [%]” value amounted to 4% and the “D4 antag [%]” value turned out to be 22%.
For `O=S(=O)(N[C@@H]1CCN(CCCc2noc3cc(F)ccc23)C1)c1csc2ccccc12` [Compound 224, N-[(3R)-1-[3-(6-Fluoro-1,2-benzoxazol-3-yl)propyl]pyrrolidin-3-yl]benzothiophene-3-sulphonamide], in assay [1], the “D2 ag [%]” value is 5% and the “D2 antag [%]” value was found to be 57%. In assay [2], the “D4 ag [%]” value is −7% and the “D4 antag [%]” value came out at 84%.
For `O=S(=O)(N[C@H]1CCN(CCCc2noc3cc(F)ccc23)C1)c1csc2ccccc12` [Compound 225, N-[(3S)-1-[3-(6-Fluoro-1,2-benzoxazol-3-yl)propyl]pyrrolidin-3-yl]benzothiophene-3-sulphonamide], in that order: 7%, 52%, −3% and 35%.
As for `COc1ccc2cc(S(=O)(=O)NC3CCN(CCCc4noc5cc(F)ccc45)C3)ccc2c1` (stereo not shown) [Compound 227, N-[1-[3-(6-Fluoro-1,2-benzoxazol-3-yl)propyl]pyrrolidin-3-yl]-6-methoxy-naphthalene-2-sulphonamide], in assay [1], the “D2 ag [%]” value is listed as 11% and the “D2 antag [%]” value came to 99%. Further, in assay [4], the “D3 ag [%]” value is recorded as −6% and the “D3 antag [%]” value is listed as 105%.
For `COc1ccc2cc(S(=O)(=O)N[C@H]3CCN(CCCc4noc5cc(F)ccc45)C3)ccc2c1` [Compound 231, N-[(3S)-1-[3-(6-Fluoro-1,2-benzoxazol-3-yl)propyl]pyrrolidin-3-yl]-6-methoxy-naphthalene-2-sulphonamide], in that order: 13%, 49%, −6% and 54%.
For `O=S(=O)(NC1CCN(CCCc2noc3cc(F)ccc23)C1)c1cc2ccc(F)cc2s1` (stereo not shown) [Compound 234, 6-Fluoro-N-[1-[3-(6-fluoro-1,2-benzoxazol-3-yl)propyl]pyrrolidin-3-yl]benzothiophene-2-sulphonamide], in assay [1], the “D2 ag [%]” value came out at 2% and the “D2 antag [%]” value worked out at 91%. In assay [4], the “D3 ag [%]” value was −14% and the “D3 antag [%]” value is 89%.
Take “N-[[1-[2-[(2,2-Dimethyl-3H-benzofuran-7-yl)oxy]ethyl]azetidin-3-yl]methyl]-3-hydroxy-benzenesulphonamide [Compound 111]”: in assay [1], the “D2 ag [%]” value worked out at 36% and the “D2 antag [%]” value worked out at 89%. Also, in assay [3], the “5-HT1A ag [%]” value is recorded as 48% and the “5-HT1A antag [%]” value turned out to be 89%.
